The values below come from US7115642B2, “Substituted diphenyl isoxazoles, pyrazoles and oxadiazoles useful for treating HCV infection” (priority 2003, dated 2006).

The assay concerns HCV replicon (5-2 Luc replicon-comprising cells). Nature of the assay: HCV replicon assay (luciferase). The class given is cell-based, Hepatitis C virus. As to conditions: 5-2 Luc replicon cells, luciferase readout; read-out: Replicon IC50. The essentials: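 Huh7-derived 5-2 Luc replicon cells seeded 24 h at 37 °C, then exposed to compound at various concentrations for another 24 h. Luciferase quantified by Bright-Glo luminescence; IC50 = concentration giving 50% reduction in luciferase activity; reported as +/− at a 10 μM cut-off.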

The structures appear in SMILES notation. A value given as a limit tells only on which side of the number the result lay.

For `O=C(Nc1cccc(-c2cc(-c3c(Cl)cccc3N3CCC4(CC3)OCCO4)no2)c1)C(Cl)Cl` [Compound 615], the IC50 (usually the concentration that inhibits the measured activity by half) is less than 10 µM.

Consider `O=C(Nc1cccc(-c2cc(-c3c(Cl)cccc3N3CCSCC3)no2)c1)C(Cl)Cl` [Compound 616], for which the half-maximal inhibitory concentration (IC50) was less than 10 µM.

As for `CC(=O)N1CCN(c2cccc(Cl)c2-c2cc(-c3cccc(NC(=O)C(Cl)Cl)c3)on2)CC1` [Compound 617], the IC50 is less than 10 µM.

Turning to `N#CC1(c2ccccc2)CCN(c2cccc(Cl)c2-c2cc(-c3cccc(NC(=O)C(Cl)Cl)c3)on2)CC1` [Compound 618], the IC50 was less than 10 µM.

As to `O=C(Nc1cccc(-c2cc(-c3c(Cl)cccc3N3CCN(c4ccc(Cl)cc4)CC3)no2)c1)C(Cl)Cl` [Compound 619], the IC50 was less than 10 µM.

As to `O=C(Nc1cccc(-c2cc(-c3c(Cl)cccc3N3CCN(c4cccc(Cl)c4)CC3)no2)c1)C(Cl)Cl` [Compound 620], the IC50 was less than 10 µM.

Turning to `O=C(Nc1cccc(-c2cc(-c3ccccc3CO)no2)c1)C(Cl)Cl` [Compound 621], the IC50 was less than 10 µM.

`O=C(Nc1cccc(-c2cc(-c3c(Cl)cccc3N3CCN(C(=O)OCc4ccccc4)CC3)no2)c1)C(Cl)Cl` [Compound 622]: the IC50 was less than 10 µM.

On to `CCOC(=O)N1CCN(c2cccc(Cl)c2-c2cc(-c3cccc(NC(=O)C(Cl)Cl)c3)on2)CC1` [Compound 624], for which the IC50 was less than 10 µM.

As to `NC(=O)C1CCN(c2cccc(Cl)c2-c2cc(-c3cccc(NC(=O)C(Cl)Cl)c3)on2)CC1` [Compound 625], the IC50 was less than 10 µM.

`CCN1CCN(c2cccc(Cl)c2-c2cc(-c3cccc(NC(=O)C(Cl)Cl)c3)on2)CC1` [Compound 627]: the half-maximal inhibitory concentration (IC50) is less than 10 µM.

On to `CN(C)C(=O)CN1CCN(c2cccc(Cl)c2-c2cc(-c3cccc(NC(=O)C(Cl)Cl)c3)on2)CC1` [Compound 628], for which the half-inhibitory concentration (IC50) was less than 10 µM.

For `CN(C)CCN1CCN(c2cccc(Cl)c2-c2cc(-c3cccc(NC(=O)C(Cl)Cl)c3)on2)CC1` [Compound 630], the IC50 is less than 10 µM.

For `O=C(Nc1cccc(-c2cc(-c3c(Cl)cccc3N3CCN(CC(=O)N4CCOCC4)CC3)no2)c1)C(Cl)Cl` [Compound 631], the IC50 was less than 10 µM.

For the compound `CC(C)N1CCN(c2cccc(Cl)c2-c2cc(-c3cccc(NC(=O)C(Cl)Cl)c3)on2)CC1` [Compound 632], the IC50 was less than 10 µM.

Consider `CC(=O)N1CCC(COc2cccc(Cl)c2-c2cc(-c3cccc(NC(=O)C(Cl)Cl)c3)on2)CC1` [Compound 634], for which the IC50 is less than 10 µM.

On to `CN(Cc1cccnc1)c1cccc(Cl)c1-c1cc(-c2cccc(NC(=O)C(Cl)Cl)c2)on1` [Compound 635], for which the IC50 was less than 10 µM.

For `O=C(Nc1cccc(-c2cc(-c3c(Cl)cccc3N3CCc4ccccc4C3)no2)c1)C(Cl)Cl` [Compound 636], the IC50 is less than 10 µM.

For the compound `O=C(Nc1cccc(-c2cc(-c3c(Cl)cccc3N3CCC(Cc4ccccc4)CC3)no2)c1)C(Cl)Cl` [Compound 637], the half-inhibitory concentration (IC50) is less than 10 µM.

With `O=C(Nc1cccc(-c2cc(-c3c(Cl)cccc3N3CCC(c4ccccc4)CC3)no2)c1)C(Cl)Cl` [Compound 638], the IC50 is less than 10 µM.

On to `CC(C)(C)OC(=O)N1CCC(CCOc2cccc(Cl)c2-c2cc(-c3cccc(NC(=O)C(Cl)Cl)c3)on2)CC1` [Compound 639], for which the IC50 was less than 10 µM.

`O=C(Nc1cccc(-c2cc(-c3c(Cl)cccc3OCCC3CCNCC3)no2)c1)C(Cl)Cl` [Compound 640]: the IC50 was less than 10 µM.

Consider `O=C(Nc1cccc(-c2cc(-c3c(Cl)cccc3N3CCN(C(=O)C4CCC4)CC3)no2)c1)C(Cl)Cl` [Compound 641], for which the 50% inhibitory concentration (IC50) was less than 10 µM.

Take `O=C(Nc1cccc(-c2cc(-c3c(Cl)cccc3N3CCN(C(=O)c4ccccc4)CC3)no2)c1)C(Cl)Cl` [Compound 642]: the half-inhibitory concentration (IC50) is less than 10 µM.

Take `O=C(Nc1cccc(-c2cc(-c3c(Cl)cccc3N3CCN(C(=O)C4CCCO4)CC3)no2)c1)C(Cl)Cl` (stereo not shown) [Compound 643]: the IC50 was less than 10 µM.

`CC(C)C(=O)N1CCN(c2cccc(Cl)c2-c2cc(-c3cccc(NC(=O)C(Cl)Cl)c3)on2)CC1` [Compound 644]: the IC50 is less than 10 µM.

For the compound `CC(=O)N1CCC(CCOc2cccc(Cl)c2-c2cc(-c3cccc(NC(=O)C(Cl)Cl)c3)on2)CC1` [Compound 645], the IC50 is less than 10 µM.

In the case of `O=C(Nc1cccc(-c2cc(-c3c(Cl)cccc3OCCC3CCN(C(=O)c4ccccn4)CC3)no2)c1)C(Cl)Cl` [Compound 646], the IC50 is less than 10 µM.

`O=C(Nc1cccc(-c2cc(-c3c(Cl)cccc3N3CCN(C(=O)CCc4ccccc4)CC3)no2)c1)C(Cl)Cl` [Compound 647]: the IC50 is less than 10 µM.

Turning to `CCC(=O)N1CCN(c2cccc(Cl)c2-c2cc(-c3cccc(NC(=O)C(Cl)Cl)c3)on2)CC1` [Compound 648], the IC50 is less than 10 µM.

In the case of `O=C(Nc1cccc(-c2cc(-c3c(Cl)cccc3N3CCN(Cc4ccncc4)CC3)no2)c1)C(Cl)Cl` [Compound 650], the IC50 is less than 10 µM.

For the compound `O=C(Nc1cccc(-c2cc(-c3c(Cl)cccc3N3CCN4CCCC4C3)no2)c1)C(Cl)Cl` (stereo not shown) [Compound 651], the half-inhibitory concentration (IC50) was less than 10 µM.

As to `O=C(Nc1cccc(-c2cc(-c3c(Cl)cccc3N3CCN(CCN4CCCC4)CC3)no2)c1)C(Cl)Cl` [Compound 652], the IC50 was less than 10 µM.

Consider `O=C(Nc1cccc(-c2cc(-c3c(Cl)cccc3N3CCN(CCc4ccccn4)CC3)no2)c1)C(Cl)Cl` [Compound 653], for which the concentration for half-maximal inhibition (IC50) is less than 10 µM.

For the compound `O=C(Nc1cccc(-c2cc(-c3c(Cl)cccc3N3CCN(Cc4ccc(Cl)cc4)CC3)no2)c1)C(Cl)Cl` [Compound 654], the IC50 was less than 10 µM.

With `CC(C)(C)OC(=O)N1CCCCC1C(=O)N1CCN(c2cccc(Cl)c2-c2cc(-c3cccc(NC(=O)C(Cl)Cl)c3)on2)CC1` (stereo not shown) [Compound 656], the IC50 is less than 10 µM.

For the compound `O=C(Nc1cccc(-c2cc(-c3c(Cl)cccc3N3CCN(C(=O)c4cc(C(F)(F)F)cc(C(F)(F)F)c4)CC3)no2)c1)C(Cl)Cl` [Compound 658], the IC50 is less than 10 µM.

As for `COc1cccc(C(=O)N2CCN(c3cccc(Cl)c3-c3cc(-c4cccc(NC(=O)C(Cl)Cl)c4)on3)CC2)c1` [Compound 659], the IC50 is less than 10 µM.

`O=C(Nc1cccc(-c2cc(-c3c(Cl)cccc3N3CCN(C(=O)c4cccc([N+](=O)[O-])c4)CC3)no2)c1)C(Cl)Cl` [Compound 660]: the IC50 was less than 10 µM.

As for `O=C(Nc1cccc(-c2cc(-c3c(Cl)cccc3N3CCN(C(=O)c4ccc(C(F)(F)F)cc4)CC3)no2)c1)C(Cl)Cl` [Compound 661], the IC50 was less than 10 µM.

On to `O=C(Nc1cccc(-c2cc(-c3c(Cl)cccc3N3CCN(C(=O)c4ccc(F)cc4)CC3)no2)c1)C(Cl)Cl` [Compound 662], for which the IC50 is less than 10 µM.

With `N#Cc1cccc(C(=O)N2CCN(c3cccc(Cl)c3-c3cc(-c4cccc(NC(=O)C(Cl)Cl)c4)on3)CC2)c1` [Compound 663], the IC50 is less than 10 µM.

Take `COc1ccc(C(=O)N2CCN(c3cccc(Cl)c3-c3cc(-c4cccc(NC(=O)C(Cl)Cl)c4)on3)CC2)cc1` [Compound 664]: the 50% inhibitory concentration (IC50) is less than 10 µM.

Regarding `O=C(Nc1cccc(-c2cc(-c3c(Cl)cccc3N3CCN(C(=O)C4CCCCN4)CC3)no2)c1)C(Cl)Cl` (stereo not shown) [Compound 666], the IC50 was less than 10 µM.

As to `O=C(Nc1cccc(-c2cc(-c3c(Cl)cccc3N3CCN(CCN4CCCCC4)CC3)no2)c1)C(Cl)Cl` [Compound 667], the half-maximal inhibitory concentration (IC50) is less than 10 µM.

On to `O=C(Nc1cccc(-c2cc(-c3c(Cl)cccc3N3CCC(C(=O)N4CCOCC4)CC3)no2)c1)C(Cl)Cl` [Compound 668], for which the IC50 is greater than 10 µM.

`CCCCNC(=O)Nc1cccc(Cl)c1-c1cc(-c2cccc(NC(=O)C(Cl)Cl)c2)on1` [Compound 669]: the IC50 is less than 10 µM.

Turning to `O=C(Nc1cccc(-c2cc(-c3c(Cl)cccc3OCc3ccccc3)no2)c1)C(Cl)Cl` [Compound 670], the IC50 is less than 10 µM.

Regarding `O=C(Nc1cccc(-c2cc(-c3c(Cl)cccc3I)no2)c1)C(Cl)Cl` [Compound 677], the IC50 is less than 10 µM.

With `CC(C)(C)OC(=O)COc1cccc(Cl)c1-c1cc(-c2cccc(NC(=O)C(Cl)Cl)c2)on1` [Compound 678], the IC50 is greater than 10 µM.

For the compound `O=C(Nc1cccc(-c2cc(-c3c(Cl)cccc3NS(=O)(=O)c3ccc(Cl)cc3)no2)c1)C(Cl)Cl` [Compound 679], the IC50 is less than 10 µM.

For the compound `O=C(Nc1cccc(-c2cc(-c3c(Cl)cccc3N3CCC(NS(=O)(=O)c4ccccc4)C3)no2)c1)C(Cl)Cl` (stereo not shown) [Compound 681], the IC50 is less than 10 µM.

With `O=C(Nc1cccc(-c2cc(-c3c(Cl)cccc3C(=O)N3CCOCC3)no2)c1)C(Cl)Cl` [Compound 683], the IC50 is less than 10 µM.

For `O=C(Nc1cccc(-c2cc(-c3c(Cl)cccc3-c3cccnc3)no2)c1)C(Cl)Cl` [Compound 685], the IC50 is less than 10 µM.

Turning to `CC(C)(C)OC(=O)c1cccc(Cl)c1-c1cc(-c2cccc(NC(=O)C(Cl)Cl)c2)on1` [Compound 686], the IC50 is less than 10 µM.

For the compound `O=C(O)c1cccc(Cl)c1-c1cc(-c2cccc(NC(=O)C(Cl)Cl)c2)on1` [Compound 687], the IC50 is greater than 10 µM.

As for `CNC(=O)c1cccc(Cl)c1-c1cc(-c2cccc(NC(=O)C(Cl)Cl)c2)on1` [Compound 691], the IC50 is less than 10 µM.

With `COC(=O)C(NC(=O)c1cccc(Cl)c1-c1cc(-c2cccc(NC(=O)C(Cl)Cl)c2)on1)c1ccccc1` (stereo not shown) [Compound 693], the half-inhibitory concentration (IC50) was greater than 10 µM.
